In patent publication US20120328569A1, “INHIBITORS OF HEPATITIS C VIRUS NS5B POLYMERASE” (priority 2010, published 2012) one finds IC50 data, which are given here for 26 compounds.

This test relates to HCV genotype 1b replicon. In words: HCV replicon assay, cell ELISA with antibody to replicon-encoded NS3/4A (genotype 1b replicon). Type of test: cell-based, hepatitis C virus. Particulars: Hepatitis C virus, 96 h, read-out: Replicon 1b IC50 (nM), HCV genotype 1b replicon cells, 96 hours incubation, NS3/4A ELISA readout. Here is the method: The HCV NS5B inhibitory activity of the present compounds may be tested using assays known in the art. The HCV NS5B polymerase inhibitors described herein have activities in a genotype 1b replicon assay as described in the Examples. The assay is performed by incubating a replicon harboring cell-line in the presence of inhibitor for a set period of time and measuring the effect of the inhibitor on HCV replicon replication either directly by quantifying replicon RNA level, or indirectly by measuring enzymatic activity of a co-encoded reporter enzyme such as luciferase or β-lactamase. By performing a series of such measurements at different inhibitor concentrations, the effective inhibitory concentration of the inhibitor (EC50 or EC90) is determined. See Jan M. Vrolijk et al., A replicons-based bioassay for the measurement of interferons in patients with chronic hepatitis C, 110 J. VIROLOGICAL METHODS 201 (2003). Such assays may also be run in an automated format for high through-put screening. See Paul Zuck et al., A cell-based β-lactamase reporter gene assay for the identification of inhibitors of hepatitis C virus replication, 334 ANALYTICAL BIOCHEMISTRY 344 (2004).
Measurement of inhibition by compounds was performed using the HCV replicon system. Several different replicons encoding different HCV genotypes or mutations were used. In addition, potency measurements were made using different formats of the replicon assay, including different ways of measurements and different plating formats. See Jan M. Vrolijk et al., A replicons-based bioassay for the measurement of interferons in patients with chronic hepatitis C, 110 J. VIROLOGICAL METHODS 201 (2003); Steven S. Carroll et al., Inhibition of Hepatitis C Virus RNA Replication by 2′-Modified Nucleoside Analogs, 278(14) J. BIOLOGICAL CHEMISTRY 11979 (2003). However, the underlying principles are common to all of these determinations, and are outlined below.
Stable neomycin phosphotransferase encoding replicons-harboring cell lines were used, so all cell lines were maintained under G418 selection prior to the assay. Potency was determined using a cell ELISA assay with an antibody to the replicons encoded NS3/4a protease. See Caterina Trozzi et al., In Vitro Selection and Characterization of Hepatitis C Virus Serine Protease Variants Resistant to an Active-Site Peptide Inhibitor, 77(6) J. Virol. 3669 (2003). To initiate an assay, replicon cells were plated in the presence of a dilution series of test compound in the absence of G418. Typically, the assays were performed in a 96-well plate formate for manual operation, or a 384-well plate format for automated assay. Replicon cells and compound were incubated for 96 hours. At the end of the assay, cells were washed free of media and compound, and the cells were then lysed. RNA was quantified indirectly through detection of replicon-encoded NS3/4A protein levels, through an ELISA-based assay with an antibody specific for NS3/4A. IC50 determinations were calculated as a percentage of a DMSO control by fitting the data to a four-parameter fit function and the data obtained is provided in the table below.
As for `C=CCN(c1cc2oc(-c3ccc(F)cc3)c(C(=O)NC)c2cc1-c1ccccc1)S(C)(=O)=O` [Example 35, 2-(4-fluorophenyl)-N-methyl-6-[(methylsulfonyl) (prop-2-en-1-yl)amino]-5-phenyl-1-benzofuran-3-carboxamide], the IC50 is 7 nM.
Regarding `CNC(=O)c1c(-c2ccc(F)cc2)oc2cc(N(CCC=C(C)C)S(C)(=O)=O)c(-c3ccccc3)cc12` [Example 40, 2-(4-fluorophenyl)-N-methyl-6-[(4-methylpent-3-en-1-yl)(methylsulfonyl)amino]-5-phenyl-1-benzofuran-3-carboxamide], the IC50 is 90 nM.
For `CCOC(=O)CN(c1cc2oc(-c3ccc(F)cc3)c(C(=O)NC)c2cc1-c1ccccc1)S(C)(=O)=O` [Example 41, ethyl N-[2-(4-fluorophenyl)-3-(methylcarbamoyl)-5-phenyl-1-benzofuran-6-yl]-N-(methylsulfonyl) glycinate], the IC50 was more than 2000 nM.
Next, `CCOC(=O)CCCN(c1cc2oc(-c3ccc(F)cc3)c(C(=O)NC)c2cc1-c1ccccc1)S(C)(=O)=O` [Example 42, ethyl 4-{[2-(4-fluorophenyl)-3-(methylcarbamoyl)-5-phenyl-1-benzofuran-6-yl](methylsulfonyl)amino}butanoate]: 60 nM.
Next, `CNC(=O)c1c(-c2ccc(F)cc2)oc2cc(N(Cc3cccc(F)c3)S(C)(=O)=O)c(-c3ccccc3)cc12` [Example 53, 6-[(3-fluorobenzyl)(methyl-sulfonyl)amino]-2-(4-fluorophenyl)-N-methyl-5-phenyl-1-benzofuran-3-carboxamide]: 373 nM.
`CNC(=O)c1c(-c2ccc(F)cc2)oc2cc(NC(C)c3ccccc3)c(-c3ccccc3)cc12` (centres unmarked) [Example 69, 2-(4-fluorophenyl)-N-methyl-5-phenyl-6-[(1-phenylethyl)amino]-1-benzofuran-3-carboxamide]: the IC50 was more than 3000 nM.
`CNC(=O)c1c(-c2ccc(F)cc2)oc2cc(NCCN(C)c3ccccc3)c(-c3ccccc3)cc12` [Example 70, 2-(4-fluorophenyl)-N-methyl-6-({2-[methyl(phenyl)amino]ethyl}amino)-5-phenyl-1-benzofuran-3-carboxamide]: the IC50 is 329 nM.
Next, `CNC(=O)c1c(-c2ccc(F)cc2)oc2cc(N(C)C(C)c3ccccc3)c(-c3ccccc3)cc12` (centres unmarked) [Example 71, 2-(4-fluorophenyl)-N-methyl-6-[methyl(1-phenylethyl)amino]-5-phenyl-1-benzofuran-3-carboxamide]: more than 2500 nM.
Next, `CCOC(=O)N(CCN(C)c1ccccc1)c1cc2oc(-c3ccc(F)cc3)c(C(=O)NC)c2cc1-c1ccccc1` [Example 72, ethyl[2-(4-fluorophenyl)-3-(methylcarbamoyl)-5-phenyl-1-benzofuran-6-yl]{2-[methyl(phenyl)amino]ethyl}carbamate]: 2670 nM; `CNC(=O)c1c(-c2ccc(F)cc2)oc2cc(NC(=O)CN(C)c3ccccc3)c(-c3ccccc3)cc12` [Example 73]: 143 nM.
On to `CNC(=O)c1c(-c2ccc(F)cc2)oc2cc(N(C)C(=O)CN(C)c3ccccc3)c(-c3ccccc3)cc12` [Example 74, 2-(4-fluorophenyl)-N-methyl-6-[methyl(N-methyl-N-phenylglycyl)amino]-5-phenyl-1-benzofuran-3-carboxamide], for which the IC50 turned out to be 395 nM.
With `CNC(=O)c1c(-c2ccc(F)cc2)oc2cc(N3C(=O)O[C@H](c4ccccc4)[C@@H]3C)c(-c3ccccc3)cc12` [Example 77, 2-(4-fluorophenyl)-N-methyl-6-[(4S,5R)-4-methyl-2-oxo-5-phenyl-1,3-oxazolidin-3-yl]-5-phenyl-1-benzofuran-3-carboxamide], the IC50 amounted to 101 nM.
Then `CNC(=O)c1c(-c2ccc(F)cc2)oc2cc(N(C)S(C)(=O)=O)c(-c3ccccc3F)cc12` [Example 78, 5-(2-fluorophenyl)-2-(4-fluorophenyl)-N-methyl-6-[methyl(methylsulfonyl)amino]-1-benzofuran-3-carboxamide], with 215 nM.
Then `CNC(=O)c1c(-c2ccc(F)cc2)oc2cc(N(C)S(C)(=O)=O)c(-c3ccccc3OC)cc12` [Example 79, 2-(4-fluorophenyl)-5-(2-methoxyphenyl)-N-methyl-6-[methyl (methylsulfonyl)amino]-1-benzofuran-3-carboxamide], with 320 nM; and `CNC(=O)c1c(-c2ccc(F)cc2)oc2cc(N(C)S(C)(=O)=O)c(-c3ccccc3C)cc12` [Example 80, 2-(4-fluorophenyl)-N-methyl-6-[methyl (methylsulfonyl)amino]-5-(2-methylphenyl)-1-benzofuran-3-carboxamide], with 241 nM.
Next, `CNC(=O)c1c(-c2ccc(F)cc2)oc2cc(N(C)S(C)(=O)=O)c(-c3cccc(C)c3)cc12` [Example 81, 2-(4-fluorophenyl)-N-methyl-6-[methyl (methylsulfonyl)amino]-5-(3-methylphenyl)-1-benzofuran-3-carboxamide]: 117 nM.
As for `CNC(=O)c1c(-c2ccc(F)cc2)oc2cc(N(C)S(C)(=O)=O)c(-c3ccc(C)cc3)cc12` [Example 82, 2-(4-fluorophenyl)-N-methyl-6-[methyl (methylsulfonyl)amino]-5-(4-methylphenyl)-1-benzofuran-3-carboxamide], the IC50 was 53 nM.
Take `CNC(=O)c1c(-c2ccc(F)cc2)oc2cc(N(C)S(C)(=O)=O)c(-c3ccccc3N(C)S(C)(=O)=O)cc12` [Example 83, 2-(4-fluorophenyl)-N-methyl-6-[methyl (methylsulfonyl)amino]-5-{2-[methyl (methylsulfonyl)amino]phenyl}-1-benzofuran-3-carboxamide]: the IC50 came out at 232 nM.
Then `CNC(=O)c1c(-c2ccc(F)cc2)oc2cc(N(C)S(C)(=O)=O)c(-c3cccc(C#N)c3)cc12` [Example 84, 5-(3-cyanophenyl)-2-(4-fluorophenyl)-N-methyl-6-[methyl (methylsulfonyl)amino]-1-benzofuran-3-carboxamide], with 107 nM; and `CNC(=O)c1c(-c2ccc(F)cc2)oc2cc(N(C)S(C)(=O)=O)c(-c3ccc(C#N)cc3)cc12` [Example 85, 5-(4-cyanophenyl)-2-(4-fluorophenyl)-N-methyl-6-[methyl (methylsulfonyl)amino]-1-benzofuran-3-carboxamide], with 43 nM; and `CNC(=O)c1c(-c2ccc(F)cc2)oc2cc(N(C)S(C)(=O)=O)c(-c3cccc(F)c3)cc12` [Example 86, 5-(3-fluorophenyl)-2-(4-fluorophenyl)-N-methyl-6-[methyl (methylsulfonyl)amino]-1-benzofuran-3-carboxamide], with 28 nM.
Then `CNC(=O)c1c(-c2ccc(F)cc2)oc2cc(N(C)S(C)(=O)=O)c(-c3ccc(F)cc3)cc12` [Example 87, 2,5-bis(4-fluorophenyl)-N-methyl-6-[methyl (methylsulfonyl)amino]-1-benzofuran-3-carboxamide], with 39 nM.
For `CNC(=O)c1c(-c2ccc(F)cc2)oc2cc(N(C)S(C)(=O)=O)c(-c3cccc(OC)c3)cc12` [Example 88, 2-(4-fluorophenyl)-5-(3-methoxyphenyl)-N-methyl-6-[methyl (methylsulfonyl)amino]-1-benzofuran-3-carboxamide], the IC50 was 52 nM.
With `CNC(=O)c1c(-c2ccc(F)cc2)oc2cc(N(C)S(C)(=O)=O)c(-c3ccc(OC)cc3)cc12` [Example 89, 2-(4-fluorophenyl)-5-(4-methoxyphenyl)-N-methyl-6-[methyl (methylsulfonyl)amino]-1-benzofuran-3-carboxamide], the IC50 worked out at 23 nM.
As for `CONC(=O)c1c(-c2ccc(F)cc2)oc2cc(N(C)S(C)(=O)=O)c(-c3ccccc3F)cc12` [Example 90, 5(2-fluorophenyl)-2-(4-fluorophenyl)-N-methoxy-6-[methyl(methylsulfonyl)amino]-1-benzofuran-3-carboxamide], the IC50 was 197 nM.
Then `CONC(=O)c1c(-c2ccc(F)cc2)oc2cc(N(C)S(C)(=O)=O)c(-c3ccccc3OC)cc12` [Example 91, 2-(4-fluorophenyl)-N-methoxy-5-(2-methoxyphenyl)-6-[methyl (methylsulfonyl)amino]-1-benzofuran-3-carboxamide], with 342 nM.
